Test results: US20230150951A1, “2,5- OR 2,6-DISUBSTITUTED HYDROQUINONE DERIVATIVES WITH AT LEAST ONE CARBOXY, SULFO OR AMIDO GROUP USEFUL AS MEDICAMENTS” (OM PHARMA SA, priority 2020, published 2023)
Where two headings read alike, the source gives them in different places.

Columns and labels:
Format in all cases: cell-based
[1] = tested on: Human neutrophils; test: Neutrophil adhesion under static conditions; settings: fMLP-stimulated adhesion to fibrinogen; method: 40 μM and 80 μM, concentration of the value not stated
In short: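 Donor buffy-coat neutrophils (3×10^6/ml, PBS with Ca/Mg, 10% FCS, pH 7.2) preincubated 30 min at 37° C with 40 μM or 80 μM compound, then stimulated 1 min at 37° C with 1 nM fMLP on fibrinogen-coated glass. Adherent cells fixed and counted by computer; mean ± SD, unpaired t-test.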

[2] = tested on: IL-2; test: Cytokine release after LPS induction on human whole blood: IL-2
Method: (§1) Aim of this in vitro method is to assess compounds effects on release of a panel of cytokines from whole blood following lipopolysaccharide (LPS) induced inflammatory reaction. Whole blood was incubated with compounds for 1 h prior to LPS induction. Cytokine levels in blood were measured using a multiplex FACS-based panel.
(§2) IC50 values determined for the tested compounds expressed in microM [μM] and the values for the inhibition of cytokines were listed for each compound.
(§3) Effect on cytokines release after LPS induction was performed on the compounds dissolved in DMSO or H2O to reach 10-fold concentrated stock solutions and dissolved in culture media.
(§4) Test system: Whole blood was removed from a single donor (into lithium heparin coated tubes; BD Vacutainer; 367886) and diluted 1:5 with RPMI 1640 (Thermo Fisher, 61870036). Within 30 minutes of sampling, blood was incubated with compounds for 1 h prior to LPS stimulation (O111:B4—Sigma L4391; 10 ng/ml final concentration). Stimulation continued under standard cell culture conditions (37° C. with 5% CO2) overnight (18 h), after which plates were centrifuged and supernatant removed and frozen at −80° C. until used for analyses.
(§5) Dilution of test compounds: 10×concentrated solutions (concerning to the final assay concentrations) of each test compound were prepared with the appropriate solvent (in DMSO or in water). These 10× compound solutions (10 μl) were then added to 90 μl pre-diluted whole blood (whole blood: RPMI1640, 1:5) resulting in the final assay concentration.
(§6) Test method: Diluted whole blood (80 μl) was pre-incubated with compounds (10 μl) to give final assay concentrations of 100, 30, 10, 3, 1, 0.3 and 0.1×10^−6M. Blood was incubated at 37° C. with 5% CO2 for 1 h. LPS was diluted in cell culture media to a concentration of […]; 10 μl was added to the whole blood to give a final concentration of 10 ng/ml. Plates were incubated at 37° C. for 18 h. Plates were centrifuged at 3,000 RPM for 5 minutes at 4° C. and supernatant removed and frozen at −80° C. until FACS analysis was carried out.
(§7) Cytokine release was measured using a custom multiplex system (ELISA Genie) according to manufacturers instructions. Prepared samples were run on an Attune NxT flow cytometer (Thermo Fisher).
(§8) Quantification of cytokine release inhibition: known concentration standards were run as part of the cytokine panel to allow quantification of each cytokine concentration in each sample. This was carried out using FCAP Array v3.0 software.
(§9) Results: The dose response relationship on cytokine release following LPS induction of inflammatory response in whole blood was assessed for all compounds. IC50 values were determined for each compound for a panel of cytokines (GM-CSF, IFN-gamma, IL-1beta, IL-2, IL-4, IL-5, IL-6, IL-8, IL-9, IL-10, IL-12p40, IL-13, IL-17A, IL-17F, IL-18, IL-21, IL-22, IL-33, TGF-beta, TNF-alpha, TNF-beta).

[3] = tested on: GM-CSF; test: Cytokine release after LPS induction on human whole blood: GM-CSF
Method: as §1, §2, §3, §4, §5, §6, §7, §8, §9

[4] = tested on: IL-17A; test: Cytokine release after LPS induction on human whole blood: IL-17A
Method: as §1, §2, §3, §4, §5, §6, §7, §8, §9

[5] = tested on: IL-6; test: Cytokine release after LPS induction on human whole blood: IL-6
Method: as §1, §2, §3, §4, §5, §6, §7, §8, §9

[6] = tested on: TGF-beta; test: Cytokine release after LPS induction on human whole blood: TGFβ
Method: as §1, §2, §3, §4, §5, §6, §7, §8, §9

[7] = tested on: IL-13; test: Cytokine release after LPS induction on human whole blood: IL-13
Method: as §1, §2, §3, §4, §5, §6, §7, §8, §9

[8] = Homo sapiens, LPS 10 ng/ml, 18 h, read-out: Whole Blood: IL-2 IC50
[9] = human whole blood, inhibition of LPS induced inflammation, read-out: IC50 IL-2
[10] = Homo sapiens, LPS 10 ng/ml, 18 h, read-out: Whole Blood: GM-CSF IC50
[11] = human whole blood, inhibition of LPS induced inflammation, read-out: IC50 GM-CSF
[12] = Homo sapiens, LPS 10 ng/ml, 18 h, read-out: Whole Blood: IL-17A IC50
[13] = human whole blood, inhibition of LPS induced inflammation, read-out: IC50 IL-17A
[14] = Homo sapiens, LPS 10 ng/ml, 18 h, read-out: Whole Blood: IL-6 IC50
[15] = human whole blood, inhibition of LPS induced inflammation, read-out: IC50 IL-6
[16] = Homo sapiens, LPS 10 ng/ml, 18 h, read-out: Whole Blood: TGFβ IC50
[17] = human whole blood, inhibition of LPS induced inflammation, read-out: IC50 TGFbeta
[18] = Homo sapiens, LPS 10 ng/ml, 18 h, read-out: Whole Blood: IL-13 IC50
[19] = human whole blood, inhibition of LPS induced inflammation, read-out: IC50 IL-13

| Structure (SMILES) | IC50 [2, 8] | IC50 [2, 9] | IC50 [3, 10] | IC50 [3, 11] | IC50 [4, 12] | IC50 [4, 13] | IC50 [5, 14] | IC50 [5, 15] | IC50 [6, 16] | IC50 [6, 17] | IC50 [7, 18] | IC50 [7, 19] | Neutrophil adhesion inhibition [1] | other results |
| --- | --- | --- | --- | --- | --- | --- | --- | --- | --- | --- | --- | --- | --- | --- |
| O=C(O)c1cc(O)c(C(=O)Nc2ccc(-c3nnn[nH]3)cc2)cc1O [Ia-003a-Tz, 4-(4-(1H-tetrazol-5-yl)phenyl-aminocarbonyl)-2,5-dihydroxybenzoic acid] | 43 µM | 43 µM | > 100 µM | 100 µM | 0.07 µM | 0.07 µM | 1.41 µM | 1.41 µM | > 100 µM | 100 µM | 89.6 µM | 89.6 µM | 30.33% | – |
| O=C(O)c1cc(NC(=O)c2cc(O)c(C(=O)Nc3ccccc3-c3nnn[nH]3)cc2O)ccc1O [Ic-001a-Tz/004a, 5-(4-(2-(1H-tetrazol-5-yl)phenylaminocarbonyl)-2,5-dihydroxybenzamido)-2-hydroxy benzoic acid] | – | – | – | – | – | – | – | – | – | – | – | – | 96.99% | IC50 ([2]; Homo sapiens, 18 h, read-out: Whole Blood: IL-2 IC50): 4.91 µM; IC50 ([2]; Homo sapiens, read-out: IC50 IL-2): 4.91 µM; IC50 ([3]; Homo sapiens, 18 h, read-out: Whole Blood: GM-CSF IC50): 3.4 µM; IC50 ([3]; Homo sapiens, read-out: IC50 GM-CSF): 3.4 µM; IC50 ([4]; Homo sapiens, 18 h, read-out: Whole Blood: IL-17A IC50): 0.02 µM; IC50 ([4]; Homo sapiens, read-out: IC50 IL-17A): 0.02 µM; IC50 ([5]; Homo sapiens, 18 h, read-out: Whole Blood: IL-6 IC50): 3.04 µM; IC50 ([5]; Homo sapiens, read-out: IC50 IL-6): 3.04 µM; IC50 ([6]; Homo sapiens, 18 h, read-out: Whole Blood: TGFβ IC50): > 100 µM; IC50 ([6]; Homo sapiens, read-out: IC50 TGFbeta): 100 µM; IC50 ([7]; Homo sapiens, 18 h, read-out: Whole Blood: IL-13 IC50): 1.5 µM; IC50 ([7]; Homo sapiens, read-out: IC50 IL-13): 1.5 µM |
| O=C(O)c1cc(NC(=O)c2cc(O)c(C(=O)Nc3ccc(O)c(C(=O)O)c3)cc2O)ccc1O [Ic-007a, 5-(4-(3-carboxy-4-hydroxyphenylaminocarbonyl)-2,5-dihydroxybenzamido)-2-hydroxy benzoic acid] | > 100 µM | 100 µM | > 100 µM | 100 µM | 0.04 µM | 0.04 µM | 0.09 µM | 0.09 µM | > 100 µM | 100 µM | 30.1 µM | 30.1 µM | 57.5% | – |

More lines, in order of falling IC50 [2, 8], values ahead:

| IC50 [2, 8] | IC50 [2, 9] | IC50 [3, 10] | IC50 [3, 11] | IC50 [4, 12] | IC50 [4, 13] | IC50 [5, 14] | IC50 [5, 15] | IC50 [6, 16] | IC50 [6, 17] | IC50 [7, 18] | IC50 [7, 19] | Structure (SMILES) | Neutrophil adhesion inhibition [1] | other results |
| --- | --- | --- | --- | --- | --- | --- | --- | --- | --- | --- | --- | --- | --- | --- |
| 36.2 µM | 36.2 µM | > 100 µM | 100 µM | 0.52 µM | 0.52 µM | 0.24 µM | 0.24 µM | > 100 µM | 100 µM | 33 µM | 33 µM | CCOC(=O)c1cc(NC(=O)c2cc(O)c(C(=O)OCC)cc2O)cc(NC(=O)c2cc(O)c(C(=O)OCC)cc2O)c1 [Ib-010a-E3, ethyl 3,5-bis(2,5-dihydroxy-4-ethoxycarbonylbenzoylamino)benzoate] | 79.5% | – |
| 9.45 µM | – | > 100 µM | – | 0.31 µM | – | 0.52 µM | – | > 100 µM | – | 0.12 µM | – | O=C(Nc1ccccc1-c1nnn[nH]1)c1cc(O)c(C(=O)Nc2ccccc2-c2nnn[nH]2)cc1O [Ic-001aTz2, N1,N4-bis(2-(1H-tetrazol-5-yl)phenyl)-2,5-dihydroxyterephthalamide] | 97.15% | – |
| 7.08 µM | 7.08 µM | 2.76 µM | 2.76 µM | 0.05 µM | 0.05 µM | 0.77 µM | 0.77 µM | > 100 µM | 100 µM | 0.15 µM | 0.15 µM | O=C(O)c1cc(NC(=O)c2cc(O)c(C(=O)O)cc2O)cc(C(=O)O)c1 [Ia-015a, 5-(4-carboxy-2,5-dihydroxybenzamido)isophthalic acid] | 17.38% | – |
| 2.74 µM | 2.74 µM | > 100 µM | 100 µM | 0.42 µM | 0.42 µM | 1.02 µM | 1.02 µM | > 100 µM | 100 µM | > 100 µM | 100 µM | O=C(O)c1cc(NC(=O)c2cc(O)c(C(=O)O)cc2O)cc(NC(=O)c2cc(O)c(C(=O)O)cc2O)c1 [Ib-010a, 3,5-bis(2,5-dihydroxy-4-carboxybenzoylamino)benzoic acid] | 1.5% | – |
